Laboratory results from patent US20240208998A1, “COMPOUNDS FOR USE IN THE TREATMENT OF HYPERPROLIFERATIVE DISORDERS” (FUNDACIÓ PRIVADA INSTITUT D'INVESTIGACIÓ ONCOLÓGICA DE VALL …, priority 2021, published 2024).

Columns and labels:
human TET2 construct = human TET2 construct (Homo sapiens, UniProt Q6N021, A1837G/A1840G/D1704G/D1842G/DEL1471-1702/DEL1708-1833/E1841G/F1706G/N1843S/Q1834G/V1836G); experiment: Determination of TET2 binding by Surface Plasmon Resonance; details: SPR, Biacore T200, 25° C., steady state fit to single site interaction model
Procedure: The human methylcytosine dioxygenase TET2 construct used (1129-2002 with residues 1471-1843 replaced by a 15-residue GS-linker) was expressed in a pET-28a(+)psumo vector with kanamycin resistance and an N-terminal His6 tag, and cloned in Rosetta D3 Escherichia coli competent cells. Transformed cells were cultured overnight in 10 mL of LB media supplied with kanamycin (50 μg/mL), then scaled to 1 L LB medium supplied with kanamycin (50 μg/mL) and grown at 37° C. Once the optical density (OD600) achieved 0.8, protein expression was induced with 0.4 mM isopropyl-β-thiogalactopyranoside (IPTG) overnight at 18° C. Cells were harvested by centrifugation (8,000 rpm, 4° C., 30 min) and the pellet obtained was resuspended in 15 mL of buffer A (50 mM Hepes, 150 mM NaCl, 30 mM imidazole, 2 mM β-mercaptoethanol (pH 8.0) supplemented with Pierce protease inhibitor cocktail (ThermoFisher Scientific)) and lysed by sonication (1 min 40 s: 10 cycles×10 s ON, 30 s OFF, A=35%, T=19° C.) followed by two consecutive centrifugations (8,000 rpm, 4° C., 30 min) to clarify the lysate.
The TET2 protein was purified using an AKTA Start system (GE Healthcare, Uppsala, Sweden) by two-step purification procedure: one His-affinity chromatography followed by a size exclusion chromatography. First, the protein fraction obtained during the lysis (supernatant) was applied to a 5 mL HisTrap HP column (GE Healthcare), washed with buffer A (50 mM Hepes, 150 mM NaCl, 30 mM imidazole, 2 mM […] (pH 8.0)) and the bound protein was eluted with buffer B (50 mM Hepes, 150 mM NaCl, 250 mM imidazole, 2 mM β-mercaptoethanol (pH 8.0)). The eluted protein-containing fractions were pooled and concentrated up to 4 mL for the last purification step: a size exclusion chromatography (HiPrep 16/60 Sephacryl S-100 HR) in 50 mM Hepes, 150 mM NaCl, 2 mM β-mercaptoethanol (pH 8.0). Finally, the mass and purity of the protein were verified by SDS-electrophoresis and mass spectrometry.
The binding of compounds of the examples was determined by Surface Plasmon Resonance (SPR) using a Biacore T200 SPR biosensor instrument (GE Healthcare, Uppsala, Sweden) at 25° C. The human TET2 construct was immobilized on a CM5 sensor chip using a standard covalent immobilization via amine coupling following the activation of the carboxymethyl dextran matrix of the sensor chip (injection of a solution containing 0.1 M N-hydroxysuccinimide and 0.4 M 1-ethyl-3-[3-(dimethylamino)propyl]carbodiimide hydrochloride at a flow rate of 15 μL/min for 7 min). The protein immobilization was achieved after the injection of 5 μg/mL TET2 in 10 mM sodium acetate (pH 4.0) at a flow rate of 5 μL/min. Unreacted activated groups of the dextran matrix were deactivated by injection of 1 M ethanolamine hydrochloride for 7 min at a flow rate of 15 μL/min. The corresponding matrix activation and protein immobilization were performed using as a running buffer a phosphate buffered saline solution (1.05× PBS: 10 mM phosphate, pH 7.4, 150 mM NaCl). The screened compounds were prepared in a 20 mM stock solution in DMSO and diluted with 1.05× PBS to achieve a final 5% (v/v) DMSO concentration. The running buffer of the interaction assays consisted of 1×PBS, 5% (v/v) DMSO. The flow rate used for the screening was 60 μL/min and the ligand association and dissociation times set were 60 s and 120 s, respectively.
For data analysis the software used was the Biacore T200 Evaluation software. Different corrections were applied. First, the nonspecific binding to the chip surface and the baseline drift were corrected subtracting the signals of a reference surface (where the immobilization procedure was carried out without proteins) to the signals obtained on the TET2 surface. Second, a series of solvent standards (solvent correction) were introduced to remove the differences derived from the DMSO. Finally, the background was corrected subtracting blank injections (blank subtraction) to the injected compound signals.

HL60 cell line = experiment: Antiproliferative activity on HL60 cell line (CellTiter-Glo); assay type: cell-based; details: Homo sapiens, HL-60; HL60, 72 h of treatment
Procedure: The human leukaemic cell line HL60 was grown in suspension in RPMI 1640 medium containing 10% (v/v) FBS and 1% (v/v) P/S (Life Technologies). […] Leukaemia cells were suspended at a density of 2×10^5 cells/mL in complete RPMI 1640 medium and 25 μL were seeded in each well (5×10^3 final total cells/well). A 10 μM solution of the compounds of examples 1, 12 and 21, and a 25 μM solution of all other compounds were prepared in complete medium, and then serially diluted (1:2) (as specified in Table 3 below). A solution of complete medium with DMSO was used as a vehicle control.
Twenty-five microliters of each serially diluted compound solution were added to the corresponding wells of the plate (50 μL of final volume/well). After 48 h of treatment, 50 μL of fresh 2X serially diluted compound solution was added to their corresponding wells (100 μL of final volume/well). After twenty-four additional hours, an equal volume (100 μL) of CellTiter-Glo Reagent (Promega) was added to each well, plates were shaken during 2 min and incubated at rt for 10 min. Luminescence was recorded using a Spark multimode microplate reader and an integration time of 1 s per well.

LN229 (glioblastoma) = experiment: Antiproliferative activity on other tumour cell lines (CellTiter-Glo): LN229; assay type: cell-based; details: Homo sapiens, LN-229; LN229, 72 h of treatment
Procedure: (§1) Other human adherent cancer cell lines were cultured in their corresponding cell medium (as specified in Table 4) supplemented with 10% FBS (v/v) and 1% P/S (v/v). Twenty-four hours prior to treatment with the compounds to be tested (Examples 1, 12 and 21), the cells were seeded in 96-well plates at different densities depending of the cell line (as specified in Table 4).
(§2) Depending on the cell line, a 50, 125 or 250 μM solution of the compounds of examples 1, 12 and 21 were prepared in complete medium, and then serially diluted (1:2) (Table 5). A solution of complete medium with DMSO was used as a vehicle control.
(§3) Fifty microliters of each serially diluted compound solution was added by medium replacement in two wells (by duplicate). After 48 h of treatment, 50 μL of fresh 2X serially diluted compound solution was added to the corresponding wells of the plate (100 μL of final volume/well). After twenty-four additional hours (a total of 72 h of treatment), an equal volume (100 μL) of CellTiter-Glo Reagent (Promega) was added to each well, plates were shaken during 2 min and incubated at rt for 10 min. Luminescence was recorded using a Spark multimode microplate reader and an integration time of 1 s per well.

MCF7 (breast) = experiment: Antiproliferative activity on other tumour cell lines (CellTiter-Glo): MCF7; assay type: cell-based; details: Homo sapiens; MCF7, 72 h of treatment
Procedure: as §1, §2, §3

SMILES | Kd (human TET2 construct) [µM] | melting point [°C] | EC50 (HL60 cell line) [µM] | EC50 (LN229 (glioblastoma)) [µM] | EC50 (MCF7 (breast)) [µM]
Cc1[nH]c2ccccc2c1-c1nc(NC(=O)Cc2cn3ccsc3n2)sc1C [Example 4, 2-(imidazo[2,1-b]thiazol-6-yl)-N-[5-methyl-4-(2-methyl-1H-indol-3-yl)thiazol-2-yl]acetamide] | 12 | 169 to 172 | 2.3 | – | –
Cc1[nH]c2ccccc2c1-c1csc(NC(=O)Cc2c[nH]c3ccccc23)n1 [Example 13, 2-(1H-indol-3-yl)-N-[4-(2-methyl-1H-indol-3-yl)thiazol-2-yl]acetamide] | 14 | 246 to 248 | 1.4 | – | –
Cc1[nH]c2ccccc2c1-c1csc(NC(=O)Cc2cc(Br)cs2)n1 [Example 19, 2-(4-bromothiophen-2-yl)-N-[4-(2-methyl-1H-indol-3-yl)thiazol-2-yl]acetamide] | 1 | 212 to 214 | 0.809 | – | –

Now from value to compound:

Kd (human TET2 construct) [µM] | melting point [°C] | EC50 (HL60 cell line) [µM] | EC50 (LN229 (glioblastoma)) [µM] | EC50 (MCF7 (breast)) [µM] | SMILES
6 | 230 to 232 | 0.497 | 5.9 | 10.3 | Cc1[nH]c2ccccc2c1-c1csc(NC(=O)Cc2c[nH]c3ccc(F)cc23)n1 [Example 12, 2-(5-fluoro-1H-indol-3-yl)-N-[4-(2-methyl-1H-indol-3-yl)thiazol-2-yl]acetamide]
7 | 145 to 149 | 0.063 | 3.3 | 12.9 | Cc1[nH]c2ccccc2c1-c1csc(NC(=O)Cc2c[nH]c3ccc(O)cc23)n1 [Example 21, 2-(5-hydroxy-1H-indol-3-yl)-N-[4-(2-methyl-1H-indol-3-yl)thiazol-2-yl]acetamide]
